Legend:
Format in all cases: in vivo
[1] = test system: AMARE (Amaranthus retroflexus); experiment: greenhouse pre-emergence herbicidal test
Description: (§1) The seeds of the test plants were sown separately for each species. For the pre-emergence treatment, the active ingredients, which had been suspended or emulsified in water, were applied directly after sowing by means of finely distributing nozzles. The containers were irrigated gently to promote germination and growth and subsequently covered with transparent plastic hoods until the plants had rooted. This cover caused uniform germination of the test plants, unless this had been impaired by the active ingredients. Depending on the species, the plants were kept at 10-25° C. or 20-35° C., respectively. The test period extended over 2 to 4 weeks. During this time, the plants were tended, and their response to the individual treatments was evaluated. […] A moderate herbicidal activity is given at values of at least 60, a good herbicidal activity is given at values of at least 70, and a very good herbicidal activity is given at values of at least 85. The plants used in the greenhouse experiments were of the following species: [table]

[2] = test system: ECHCG (Echinocloa crus-galli); experiment: greenhouse pre-emergence herbicidal test
Description: (§2) The culture containers used were plastic flowerpots containing loamy sand with approximately 3.0% of humus as the substrate. The seeds of the test plants were sown separately for each species.
(§3) For the pre-emergence treatment, the active ingredients, which had been suspended or emulsified in water, were applied directly after sowing by means of finely distributing nozzles. The containers were irrigated gently to promote germination and growth and subsequently covered with transparent plastic hoods until the plants had rooted. This cover caused uniform germination of the test plants, unless this had been impaired by the active ingredients.
(§4) Depending on the species, the plants were kept at 10-25° C. or 20-35° C., respectively.
(§5) The test period extended over 2 to 4 weeks. During this time, the plants were tended, and their response to the individual treatments was evaluated.
(§6) Evaluation was carried out using a scale from 0 to 100. 100 means no emergence of the plants, or complete destruction of at least the aerial moieties, and 0 means no damage, or normal course of growth. A moderate herbicidal activity is given at values of at least 60, a good herbicidal activity is given at values of at least 70, and a very good herbicidal activity is given at values of at least 85.
(§7) The plants used in the greenhouse experiments were of the following species: […]

SETFA (Setaria faberi) = experiment: greenhouse pre-emergence herbicidal test
Description: as §2, §3, §4, §5, §6, §7

[3] = test system: ABUTH (Abutilon theophrasti); experiment: greenhouse post-emergence herbicidal test
Description: as §2
(§8) For the post-emergence treatment, the test plants were first grown to a height of 3 to 15 cm, depending on the plant habit, and only then treated with the active ingredients which had been suspended or emulsified in water. For this purpose, the test plants were either sown directly and grown in the same containers, or they were first grown separately as seedlings and transplanted into the test containers a few days prior to treatment.
as §4, §5, §6, §7

[4] = test system: AMARE (Amaranthus retroflexus); experiment: greenhouse post-emergence herbicidal test
Description: as §2, §8, §4, §5, §6, §7

VIOAR (Viola arvensis) = experiment: greenhouse pre-emergence herbicidal test; conditions: 0.125 kg/ha
Description: as §2, §3, §4, §5, §6, §7

STEME (Stellaria media) = experiment: greenhouse pre-emergence herbicidal test
Description: as §2, §3, §4, §5, §6, §7

[5] = test system: CAPBP (Capsella bursa-pastoris); experiment: greenhouse pre-emergence herbicidal test; conditions: CAPBP
Description: as §2, §3, §4, §5, §6, §7

[6] = test system: ABUTH (Abutilon theophrasti); experiment: greenhouse pre-emergence herbicidal test
Description: as §1

SMILES: Nc1nc(Nc2c(F)ccc(F)c2F)nc(C2CCCC2)n1 [Example 212]
- herbicidal activity ([1]; 500 g/ha): very good (a very good herbicidal activity is given at values of at least 85)
- herbicidal activity ([2]; 500 g/ha): very good (a very good herbicidal activity is given at values of at least 85)
- herbicidal activity (SETFA (Setaria faberi); 500 g/ha): very good (a very good herbicidal activity is given at values of at least 85)

SMILES: Nc1nc(Nc2c(F)c(F)c(F)c(F)c2F)nc(C2CCC(C(F)(F)F)CC2)n1 (stereo not shown) [Example 165]
- herbicidal activity ([1]; 1000 g/ha): very good (a very good herbicidal activity is given at values of at least 85)
- herbicidal activity ([2]; 1000 g/ha): very good (a very good herbicidal activity is given at values of at least 85)
- herbicidal activity (SETFA (Setaria faberi); 1000 g/ha): very good (a very good herbicidal activity is given at values of at least 85)

SMILES: CC(C)(F)c1nc(N)nc(Nc2c(F)cc(F)cc2F)n1 [Example 28]
- herbicidal activity ([3]; 0.125 kg/ha): very good (a very good herbicidal activity is given at values of at least 85)
- herbicidal activity ([4]; 0.125 kg/ha): very good (a very good herbicidal activity is given at values of at least 85)

SMILES: CC(C)(F)c1nc(N)nc(Nc2cc(F)c(F)c(F)c2)n1 [Example 29]
- herbicidal activity (VIOAR (Viola arvensis)): moderate (A moderate herbicidal activity is given at values of at least 60)

SMILES: CCC(CC)c1nc(N)nc(Nc2c(F)c(F)c(F)c(F)c2F)n1 [Example 83]
- herbicidal activity (STEME (Stellaria media); 250 g/ha): very good (a very good herbicidal activity is given at values of at least 85)
- herbicidal activity ([5]; 250 g/ha): very good (a very good herbicidal activity is given at values of at least 85)
- herbicidal activity ([2]; 250 g/ha): very good (a very good herbicidal activity is given at values of at least 85)

SMILES: Nc1nc(CC2CC2)nc(Nc2c(F)cc(F)cc2F)n1 [Example 141]
- herbicidal activity ([1]; 1000 g/ha): very good (a very good herbicidal activity is given at values of at least 85)
- herbicidal activity ([2]; 1000 g/ha): good (a good herbicidal activity is given at values of at least 70)
- herbicidal activity (SETFA (Setaria faberi); 1000 g/ha): very good (a very good herbicidal activity is given at values of at least 85)

SMILES: COc1ccc(F)c(F)c1Nc1nc(N)nc(C(F)(F)F)n1 [Example 158]
- herbicidal activity ([3]; 1000 g/ha): very good (a very good herbicidal activity is given at values of at least 85)

SMILES: CCCCC(C#N)c1nc(N)nc(Nc2c(F)ccc(F)c2F)n1 (stereo not shown) [Example 197]
- herbicidal activity (SETFA (Setaria faberi); 1000 g/ha): good (a good herbicidal activity is given at values of at least 70)

SMILES: CC(C)(C)C1CCC(c2nc(N)nc(Nc3c(F)c(F)c(F)c(F)c3F)n2)CC1 (stereo not shown) [Example 177]
- herbicidal activity ([1]; 500 g/ha): very good (a very good herbicidal activity is given at values of at least 85)
- herbicidal activity (SETFA (Setaria faberi); 500 g/ha): good (a good herbicidal activity is given at values of at least 70)

SMILES: CC(C)(F)c1nc(N)nc(Nc2ccc(F)cc2F)n1 [Example 22]
- herbicidal activity (VIOAR (Viola arvensis)): good (a good herbicidal activity is given at values of at least 70)

SMILES: COC1CCC(c2nc(N)nc(Nc3c(F)c(F)c(F)c(F)c3F)n2)CC1 (stereo not shown) [Example 167]
- herbicidal activity ([6]; 500 g/ha): good (a good herbicidal activity is given at values of at least 70)
- herbicidal activity ([1]; 500 g/ha): very good (a very good herbicidal activity is given at values of at least 85)
- herbicidal activity (SETFA (Setaria faberi); 500 g/ha): very good (a very good herbicidal activity is given at values of at least 85)

SMILES: C=C(C)c1nc(N)nc(Nc2c(F)c(F)c(F)c(F)c2F)n1 [Example 53]
- herbicidal activity ([1]; 0.125 kg/ha): very good (a very good herbicidal activity is given at values of at least 85)
- herbicidal activity (SETFA (Setaria faberi); 0.125 kg/ha): good (a good herbicidal activity is given at values of at least 70)

SMILES: CC(C)(F)c1nc(N)nc(Nc2cc(F)cc(F)c2)n1 [Example 25]
- herbicidal activity (VIOAR (Viola arvensis)): very good (a very good herbicidal activity is given at values of at least 85)

SMILES: N#CC1(c2nc(N)nc(Nc3c(F)c(F)cc(F)c3F)n2)CC1 [Example 216]
- herbicidal activity ([6]; 250 g/ha): good (a good herbicidal activity is given at values of at least 70)
- herbicidal activity ([1]; 250 g/ha): very good (a very good herbicidal activity is given at values of at least 85)
- herbicidal activity (SETFA (Setaria faberi); 250 g/ha): good (a good herbicidal activity is given at values of at least 70)

SMILES: CC=C(C)c1nc(N)nc(Nc2c(F)c(F)c(Br)c(F)c2F)n1 [Example 194]
- herbicidal activity (SETFA (Setaria faberi); 500 g/ha): good (a good herbicidal activity is given at values of at least 70)

SMILES: CCC(C)(Cl)c1nc(N)nc(Nc2c(F)c(F)cc(F)c2F)n1 (stereo not shown) [Example 205]
- herbicidal activity ([1]; 125 g/ha): very good (a very good herbicidal activity is given at values of at least 85)
- herbicidal activity ([2]; 125 g/ha): very good (a very good herbicidal activity is given at values of at least 85)
- herbicidal activity (SETFA (Setaria faberi); 125 g/ha): very good (a very good herbicidal activity is given at values of at least 85)

SMILES: CC(C)(C)C(=O)N(c1nc(N)nc(C(C)(C)C)n1)c1c(F)c(F)cc(F)c1F [Example 286]
- herbicidal activity ([6]; 125 g/ha): very good (a very good herbicidal activity is given at values of at least 85)
- herbicidal activity ([1]; 125 g/ha): very good (a very good herbicidal activity is given at values of at least 85)
- herbicidal activity (SETFA (Setaria faberi); 125 g/ha): very good (a very good herbicidal activity is given at values of at least 85)

SMILES: Nc1nc(C2=CCCCC2)nc(N(C(=O)C2=CCCCC2)c2c(F)c(F)c(F)c(F)c2F)n1 [Example 303]
- herbicidal activity ([3]; 500 g/ha): good (a good herbicidal activity is given at values of at least 70)
- herbicidal activity ([4]; 500 g/ha): good (a good herbicidal activity is given at values of at least 70)

SMILES: Nc1nc(Nc2c(F)ccc(Cl)c2F)nc(C(F)(F)F)n1 [Example 126]
- herbicidal activity ([3]; 1000 g/ha): good (a good herbicidal activity is given at values of at least 70)
- herbicidal activity ([4]; 1000 g/ha): very good (a very good herbicidal activity is given at values of at least 85)

SMILES: Nc1nc(Nc2c(F)c(F)cc(F)c2F)nc(C(F)F)n1 [Example 150]
- herbicidal activity ([6]; 500 g/ha): very good (a very good herbicidal activity is given at values of at least 85)
- herbicidal activity ([1]; 500 g/ha): very good (a very good herbicidal activity is given at values of at least 85)
- herbicidal activity (SETFA (Setaria faberi); 500 g/ha): very good (a very good herbicidal activity is given at values of at least 85)

SMILES: CC(C)(C)c1nc(N)nc(Nc2c(F)ccc(F)c2F)n1 [Example 80]
- herbicidal activity (STEME (Stellaria media); 125 g/ha): very good (a very good herbicidal activity is given at values of at least 85)
- herbicidal activity ([5]; 125 g/ha): very good (a very good herbicidal activity is given at values of at least 85)
- herbicidal activity ([2]; 125 g/ha): very good (a very good herbicidal activity is given at values of at least 85)

SMILES: CC(C)(F)c1nc(N)nc(Nc2c(F)cc([N+](=O)[O-])cc2F)n1 [Example 220]
- herbicidal activity (SETFA (Setaria faberi); 500 g/ha): good (a good herbicidal activity is given at values of at least 70)

SMILES: N#Cc1cccc(F)c1Nc1nc(N)nc(C(F)(F)F)n1 [Example 151]
- herbicidal activity ([3]; 500 g/ha): good (a good herbicidal activity is given at values of at least 70)

SMILES: CC(Cl)(Cl)c1nc(N)nc(Nc2c(F)c(F)c(F)c(F)c2F)n1 [Example 147]
- herbicidal activity ([1]; 250 g/ha): very good (a very good herbicidal activity is given at values of at least 85)
- herbicidal activity ([2]; 250 g/ha): very good (a very good herbicidal activity is given at values of at least 85)
- herbicidal activity (SETFA (Setaria faberi); 250 g/ha): very good (a very good herbicidal activity is given at values of at least 85)

SMILES: CC(C)(F)c1nc(N)nc(Nc2c(F)ccc(F)c2Cl)n1 [Example 36]
- herbicidal activity ([3]; 0.062 kg/ha): very good (a very good herbicidal activity is given at values of at least 85)
- herbicidal activity ([4]; 0.062 kg/ha): very good (a very good herbicidal activity is given at values of at least 85)

SMILES: Nc1nc(Nc2c(F)cc(F)cc2F)nc(C2CCC2)n1 [Example 142]
- herbicidal activity ([6]; 500 g/ha): good (a good herbicidal activity is given at values of at least 70)
- herbicidal activity ([1]; 500 g/ha): very good (a very good herbicidal activity is given at values of at least 85)
- herbicidal activity (SETFA (Setaria faberi); 500 g/ha): good (a good herbicidal activity is given at values of at least 70)

SMILES: Nc1nc(C2CCCC2)nc(N(C(=O)C2CCCC2)c2c(F)c(F)cc(F)c2F)n1 [Example 304]
- herbicidal activity ([1]; 1000 g/ha): very good (a very good herbicidal activity is given at values of at least 85)
- herbicidal activity ([2]; 1000 g/ha): very good (a very good herbicidal activity is given at values of at least 85)
- herbicidal activity (SETFA (Setaria faberi); 1000 g/ha): very good (a very good herbicidal activity is given at values of at least 85)

SMILES: CN(c1nc(N)nc(C(C)(C)F)n1)c1c(F)c(F)c(F)c(F)c1F [Example 307]
- herbicidal activity ([1]; 125 g/ha): very good (a very good herbicidal activity is given at values of at least 85)
- herbicidal activity (SETFA (Setaria faberi); 125 g/ha): very good (a very good herbicidal activity is given at values of at least 85)

Source: patent US9549558B2, “Herbicidal azines” (BASF SE, priority 2012, dated 2017)
